Patent publication US5221616A, “Prevention of spontaneous complement activation in mammalian biological fluids” (Quidel Corporation, priority 1988, dated 1993)
Entries after “also recorded” stand apart in the source; their conditions may differ.

Tests used:
C3 [1] = molecular target: T1, C3 (Homo sapiens, UniProt P01024); assay: polyhydroxyl compounds in Buffer B mixed with EDTA-NHP: iC3b and C3d,g/iC3b fragment EIA; type: biochemical; conditions: 22° C. for 48 hr
T1 construct: 250 μL of freshly drawn EDTA-normal human plasma (EDTA-NHP); from tissue; host or cells: normal human blood plasma (EDTA plasma; in A12 also citrate and heparin plasma)
Protocol: (§1) An extensive series of experiments were conducted to examine the ability of a large variety of polyhydroxyl compounds to prevent the spontaneous activation of C in EDTA-NHP during in vitro storage at 22° C for 48 hr. EDTA-NHP was mixed with an equal volume of Buffer B containing the polyhydroxyl compound to be tested. In these experiments Buffer B consisted of 40 mM EDTA and 30 IU sodium heparin/mL dissolved in deionized water, pH 7.2. The final concentration of polyhydroxyl compound dissolved in Buffer B varied for each compound due to differences in solubility. For each set of experiments, EDTA-NHP was also diluted and mixed with an equal volume of PBS (untreated control). The EDTA-NHP samples mixed with each polyhydroxyl compound dissolved in Buffer B and the corresponding untreated controls were incubated at 22° C. for 48 hr, stored at -70° C. and subsequently assayed for C4d, iC3b, C3d,g/iC3b and Bb complement fragment levels as well as for circulating immune complex levels using the Raji Cell Replacement EIA. […] This conclusion was based upon the iC3b percent protection values determined for each of the polyhydroxyl compounds (treated samples) as listed in FIG. 14.
(§2) The concentrations, expressed as μg analyte/mL, of a number of different activation products of spontaneous complement activation were measured in the course of these experiments. In an effort to normalize the data obtained from the various determinations so that the results from different assays could be directly compared to one another, a percent protection value was calculated for each analyte measured. The precent protection values were calculated by dividing the μg analyte/mL in the non-incubated, time-zero control sample by the μg analyte/mL in the experimental sample, multiplied by 100%. A percent protection value of 70 to 130% for any given analyte measured in an experimental sample was considered to indicate that the invention formulation tested was fully effective at providing protection against the occurrence of spontaneous complement activation. Ideally, the effective composition formulation would provide full protection against the occurrence of spontaneous complement activation in a complement-containing sample for all of the analytes measured. In fact, this was the case with several polyhydroxyl compounds when they were present in sufficiently high concentrations in a preferred embodiment of the invention.
A plasma dilution of 1:50 and a serum dilution of 1:100 were used in the iC3b fragment EIA tests. The immunochemical reaction specificity of MoAb 013III-1.1.6.1 has been published previously in abstract form, W. P. Kolb, et al., Fed. Proc. 44:990 (1985).
A plasma dilution of 1:250 and a serum dilution of 1:500 were used in the C3d,g/iC3b EIA tests. […] 135:2015-2019 (1985); Y. Kanayama, et al., J. Immunol. Meth. 88:33-36 (1986). The immunochemical reaction specificity of the Cytotech MoAb 013III-31.4.3.2.2has been published previously in abstract form, W. P. Kolb, et al., FASEB Journal 2:A1834 (1988).

C4 [2] = assay: polyhydroxyl compounds in Buffer B mixed with EDTA-NHP: C4d fragment EIA; type: biochemical, human; conditions: 22° C. for 48 hr
Protocol: as §1, §2

[3] = tested on: coagulation system and fibrin clot formation; conditions: whole blood or plasma; cited from earlier work
complement system = conditions: plasma or serum; cited from earlier work
complement = assay: protection against spontaneous complement activation in complement-containing samples during in vitro storage (summary of fragment EIAs); type: biochemical, human; conditions: for acceptable range of final concentration at which spontaneous C activation will be prevented: ingredient of the formulation; for final concentration identified as particularly effective: added to a complement-containing sample; for range of final concentrations found to provide protection against spontaneous complement activation: complement-containing samples during in vitro storage
Protocol: A method for screening compounds to determine the complement preventing effectiveness thereof is described in detail in the course of the following experimental description and discussion. The method essentially comprises treating complement-containing samples with various doses of the test compounds, storing the thus-treated sample at conventional storage temperature for a minimum of about 48 hours and determining the extent of complement activation which occurs during the storage period by performing assays on the sample for various complement activation products. The results are compared with determination of the level of the same activation products at the beginning of the storage period, i.e., a non-incubated control sample. A non-treated control, comprising an identical sample diluted with phosphate buffered saline (PBS) in a volume ratio identical to that of the sample and polyhydroxyl solution is similarly assayed.
as §2
A percent protection value range of 70 to 130% was used as a criterion to define that a given invention embodiment was able to provide full protection against spontaneous complement activation for the following reasons: The coefficient of variation for the EIA kits employed in these studies ranged from 10-30% when analyte levels were measured in the very low range of values found in freshly-drawn normal human plasma samples. Therefore, in order to ensure that a given result fell within the variability range of the assays employed, a percent protection value between 70 and 130% was considered to represent a fully protective effect.

C3 [4] = molecular target: T1, C3; assay: iC3b fragment EIA: spontaneous C3 activation in EDTA-NHP incubated with increasing concentrations of polyhydroxyl compound in water; type: biochemical; conditions: 22° C. for 48 hr; for spontaneous iC3b fragment production: increasing final concentrations of compound (galactose up to 2M)
Protocol: FIG. 1. […] 250 μL of freshly drawn EDTA-normal human plasma (EDTA-NHP) was mixed with 0 to 250 μL of 4M β-D-glucose dissolved in deionized water. All reaction mixtures were brought up to a final reaction volume of 500 μL using deionized water as the diluent. Each reaction mixture was mixed thoroughly, incubated at 22° C. for 48 hr and assayed for iC3b fragment levels. A non-incubated control (-70° C.) was prepared by mixing 1 part EDTA-NHP with 1 part 4M β-D-glucose dissolved in deionized water. This control reaction mixture was stored at -70° C. until it was assayed in the iC3b fragment EIA along with the incubated experimental samples.
Several different polyhydroxyl compounds were individually dissolved in deionized water to obtain solutions of each compound at a concentration approaching saturation at 22° C. Freshly drawn EDTA-NHP was mixed with increasing concentrations of the polyhydroxyl compound to be tested keeping the final reaction volumes constant. For example, 250 μL of freshly drawn EDTA-NHP was mixed with 0 to 250 μL of the concentrated polyhydroxyl solution to be tested. All reaction mixtures were brought up to a final reaction volume of 500 μL using deionized water as the diluent. Each reaction mixture was mixed thoroughly and incubated at 22° C. for 48 hr. A non-incubated control was prepared for each experiment by mixing 1 part EDTA-NHP with 1 part of the concentrated polyhydroxyl solution to be tested. This control mixture was held at -70° C. until it was thawed out, along with the other experimental samples, and assayed for the occurrence of spontaneous complement activation. For this initial set of experiments, iC3b fragment levels were quantitated in all test samples using the Cytotech monoclonal antibody based EIA procedure. The first analyte selected to be measured was iC3b since, based on previously published data as outlined above, it was anticipated that the C3 protein would be the most susceptible to spontaneous activation upon storage of EDTA-NHP in vitro.
All of the EIA tests employed in these studies utilized solid-phase monoclonal antibody capture assay kit procedures (Cytotech, Inc., San Diego, Calif.). The procedure was basically the same for each EIA kit. Briefly, in the first step of each EIA assay, 100 μL of standards, controls and diluted test specimens were incubated at 22° C., i.e., room temperature, in duplicate polystyrene microtiter wells precoated with a capture monoclonal antibody which specifically reacted with the complement fragment or complex under investigation. During this first incubation period, complement fragments or complexes were bound to the monoclonal antibody coated microassay wells. A wash cycle removed unbound materials.
In the second step, 50 μL of horseradish peroxidase (HRP)-conjugated purified IgG antibody, which reacted with the captured complement fragment or complex analyte, was added to each well and incubated at 22° C. A wash cycle removed unbound conjugate.
In the third step, 100 μL of the HRP enzyme substrate ABTS (0.034% ABTS and 0.0126% H2 O2 in 100 mM sodium citrate buffer, pH 4.0) was added to each well and incubated at 22° C. The bound HRP-conjugatedantibody reacted with the ABTS substrate producing a green color which was proportional to the amount of specimen analyte bound. The HRP-enzymatic reaction was stopped upon addition of 50 μL 250 mM oxalic acid. The substrate color intensity present in each well was measured at 405 nm using an automated EIA microplate reader and the analyte concentration/mL in the original test specimen was determined for each analyte from the appropriate standard curve.
iC3b EIA: The capture mouse monoclonal antibody used to coat microtiter wells for the iC3b fragment EIA was Cytotech MoAb 013III-1.1.6.1 which reacts with a neoantigenic determinant expressed on the iC3b activation fragment of human C3.

C4 [5] = assay: C4d fragment EIA: heparin plasma or heparin whole blood stored on ice or at 22° C.; type: biochemical, human
Protocol: The first set of experiments addressed the question of how long can a human complement-containing sample be incubated at various temperatures in vitro before evidence of spontaneous C activation can be measured. In FIG. 16 results are presented in which freshly drawn EDTA-NHP, heparin plasma, heparin whole blood or EDTA whole blood were stored on ice (1° C.) or at 22° C. […] In the case of the whole blood samples, the cells were removed by centrifugation before the plasma supernatants were collected and stored at -70° C. […] The other components of the invention composition are also required in order to obtain full protection against spontaneous C activation. This point will be covered in further detail below.

[6] = tested on: C3, Factor B, or the terminal complement proteins; assay: effect of sodium heparin on storage behavior of other complement proteins; type: biochemical, human; conditions: sodium heparin in the stabilizing formulation

T1 sequence (P01024 672-1663 limits assumed): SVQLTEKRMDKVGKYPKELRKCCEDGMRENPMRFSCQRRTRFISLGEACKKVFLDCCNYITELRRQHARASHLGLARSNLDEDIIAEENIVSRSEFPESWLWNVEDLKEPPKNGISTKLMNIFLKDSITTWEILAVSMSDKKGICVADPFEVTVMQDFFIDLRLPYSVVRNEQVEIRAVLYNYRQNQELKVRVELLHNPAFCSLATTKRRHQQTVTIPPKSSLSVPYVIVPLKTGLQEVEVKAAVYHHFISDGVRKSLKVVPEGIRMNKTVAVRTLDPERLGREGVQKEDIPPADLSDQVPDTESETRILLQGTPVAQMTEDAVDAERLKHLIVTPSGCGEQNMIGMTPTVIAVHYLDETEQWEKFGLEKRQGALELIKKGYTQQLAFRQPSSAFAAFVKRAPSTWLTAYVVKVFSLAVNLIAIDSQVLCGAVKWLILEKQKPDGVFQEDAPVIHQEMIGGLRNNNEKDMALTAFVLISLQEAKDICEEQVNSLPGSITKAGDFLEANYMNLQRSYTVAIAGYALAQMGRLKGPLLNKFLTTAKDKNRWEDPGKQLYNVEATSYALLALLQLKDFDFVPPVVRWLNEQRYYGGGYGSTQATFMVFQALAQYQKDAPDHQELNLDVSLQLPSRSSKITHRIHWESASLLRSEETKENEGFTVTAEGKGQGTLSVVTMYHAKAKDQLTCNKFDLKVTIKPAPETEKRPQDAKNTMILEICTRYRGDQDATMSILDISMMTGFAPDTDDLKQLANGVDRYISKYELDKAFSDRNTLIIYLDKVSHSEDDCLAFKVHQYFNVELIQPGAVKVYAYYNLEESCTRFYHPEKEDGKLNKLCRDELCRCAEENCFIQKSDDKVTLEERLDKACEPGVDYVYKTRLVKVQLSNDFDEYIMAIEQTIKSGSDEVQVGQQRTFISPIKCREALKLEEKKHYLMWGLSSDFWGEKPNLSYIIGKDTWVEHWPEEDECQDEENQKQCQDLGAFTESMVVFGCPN
T1 sequence (P01024 23-667 limits assumed): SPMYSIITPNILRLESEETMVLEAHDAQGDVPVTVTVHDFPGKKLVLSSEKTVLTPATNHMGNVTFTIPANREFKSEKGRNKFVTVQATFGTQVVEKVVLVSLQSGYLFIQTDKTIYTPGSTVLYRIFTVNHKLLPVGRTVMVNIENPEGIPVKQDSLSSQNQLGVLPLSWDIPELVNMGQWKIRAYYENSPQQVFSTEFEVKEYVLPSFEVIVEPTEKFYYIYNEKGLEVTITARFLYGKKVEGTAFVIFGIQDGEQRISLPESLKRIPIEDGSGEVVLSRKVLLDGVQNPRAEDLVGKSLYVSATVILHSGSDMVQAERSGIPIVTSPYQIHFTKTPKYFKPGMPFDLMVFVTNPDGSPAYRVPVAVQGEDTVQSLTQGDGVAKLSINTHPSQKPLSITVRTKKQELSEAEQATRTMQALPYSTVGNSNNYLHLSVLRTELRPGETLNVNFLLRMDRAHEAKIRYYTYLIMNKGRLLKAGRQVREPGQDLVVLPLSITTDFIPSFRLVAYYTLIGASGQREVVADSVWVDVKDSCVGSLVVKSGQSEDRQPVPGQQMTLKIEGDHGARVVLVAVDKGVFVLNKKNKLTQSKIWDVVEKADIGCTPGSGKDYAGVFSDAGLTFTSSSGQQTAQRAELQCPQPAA

## O=CC[C@H](O)[C@H](O)CO [2-deoxy-D-ribose]
C3 [1]; final concentration 2M
  prevention of spontaneous activation of C3: ineffective
C4 [2]; final concentration 2M
  prevention of spontaneous activation of C4 (C4d fragment production): able to prevent

## OC[C@@H](O)[C@@H](O)[C@H](O)[C@H](O)CO [D-mannitol]
C3 [1]; final concentration 1.5M
  prevention of spontaneous activation of C3: ineffective; also recorded: unable to inhibit
C4 [2]; final concentration 1.5M
  prevention of spontaneous activation of C4 (C4d fragment production): unable to inhibit

## N[C@@H]1C(O)O[C@H](CO)[C@@H](O)[C@@H]1O (stereo partly drawn) [D-mannosamine]
C3 [1]; final concentration 2M
  prevention of spontaneous activation of C3: ineffective

## OC[C@H]1O[C@H](OC[C@H]2O[C@H](O[C@]3(CO)O[C@H](CO)[C@@H](O)[C@@H]3O)[C@H](O)[C@@H](O)[C@@H]2O)[C@H](O)[C@@H](O)[C@H]1O [D-raffinose]
C3 [1]; final concentration 1.5M
  prevention of spontaneous activation of C3: ineffective; also recorded: unable to inhibit
C4 [2]; final concentration 1.5M
  prevention of spontaneous activation of C4 (C4d fragment production): unable to inhibit

## O=C(O)CN(CCN(CC(=O)O)CC(=O)O)CC(=O)O [EDTA, ethylene diamine tetraacetic acid]
[3]
  final concentration that inhibits activation of the coagulation system and fibrin clot formation: ≥ 1 mM
Complement system
  final concentration that inhibits activation of the complement system: ≥ 1 mM
complement
  acceptable range of final concentration at which spontaneous C activation will be prevented: 1 to 40 mM

## OC[C@H]1O[C@@H](OC[C@H]2OC(O)[C@H](O)[C@@H](O)[C@@H]2O)[C@H](O)[C@@H](O)[C@@H]1O (stereo partly shown) [gentiobiose]
C3 [4]
  spontaneous iC3b fragment production: inhibited with increasing concentrations
complement
  final concentration identified as particularly effective: ≥ 1.5 M
  range of final concentrations found to provide protection against spontaneous complement activation: 1.0 to 4 M

## N[C@H]1C(O)O[C@H](CO)[C@@H](O)[C@@H]1O (stereo partly shown) [glucosamine]
C3 [1]; final concentration 0.5M
  prevention of spontaneous activation of C3: ineffective

## O[C@H]1[C@H](O)[C@@H](O)[C@H](O)[C@@H](O)[C@H]1O [inositol]
C3 [1]; final concentration 0.5M
  prevention of spontaneous activation of C3: ineffective

## OC[C@H]1O[C@H](OC[C@H]2OC(O)[C@H](O)[C@@H](O)[C@@H]2O)[C@H](O)[C@@H](O)[C@H]1O (stereo partly shown) [melibiose]
C3 [4]
  spontaneous iC3b fragment production: inhibited with increasing concentrations
complement
  final concentration identified as particularly effective: ≥ 1.5 M
  range of final concentrations found to provide protection against spontaneous complement activation: 0.6 to 4 M

## OC[C@H]1O[C@@](CO)(O[C@H]2O[C@H](CO)[C@@H](O)[C@H](O)[C@H]2O)[C@@H](O)[C@@H]1O [sucrose]
C3 [4]
  spontaneous iC3b fragment production: inhibited with increasing concentrations
complement
  final concentration identified as particularly effective: ≥ 1.75 M
  range of final concentrations found to provide protection against spontaneous complement activation: 1.2 to 4 M

## OC[C@H]1O[C@H](O[C@H]2O[C@H](CO)[C@@H](O)[C@H](O)[C@H]2O)[C@H](O)[C@@H](O)[C@@H]1O [trehalose]
C3 [4]; compared with -70° C. control
  final concentration that completely prevented spontaneous iC3b fragment production: ≥ 1.3 M
C3 [4]
  spontaneous iC3b fragment production: inhibited with increasing concentrations
complement
  final concentration identified as particularly effective: ≥ 1.3 M
  range of final concentrations found to provide protection against spontaneous complement activation: 0.6 to 3.5 M

## galactose
C3 [1]; final concentration 2M
  prevention of spontaneous activation of C3: ineffective
C3 [4]
  spontaneous iC3b fragment production: only slight inhibition

## sodium heparin
C4 [5]; heparin alone, 22° C for as long as 24 hr
  prevention of spontaneous activation of C4: not sufficient to prevent
C4 [5]; plasma or whole blood collected in sodium heparin, 1° C. or 22° C.
  time without clear evidence of spontaneous C4 activation: ≥ 6 h
[6]
  effect on storage behavior of C3, Factor B, or the terminal complement proteins: does not improve the storage behavior
complement
  acceptable range of final concentration at which spontaneous C activation will be prevented: 15-60 IU/mL
